The target in the test is human TPH1 (Homo sapiens (Human), UniProt P17752). Put plainly: Biochemical in vitro assay using fluorescence readout (TPH1 inhibition). The text has this: Biochemical In Vitro Assay Using Fluorescence Readout
To generate the enzyme, full length human TPH1 is cloned into the plasmid pET20b(+) (Novagen) and expressed in E. coli. The bacterial cells are ruptured by sonication on ice and the lysate is cleared by centrifugation. The resulting protein in the pellet is re-extracted and TPH1 is purified from the obtained lysate by affinity chromatography using a pterin cosubstrate analog immobilized to the resin of the column. The protein is further purified by size exclusion chromatography to remove protein aggregates. The activity of TPH1 is determined by using a fluorescence assay. The enzyme activity assay is carried out at 15° C. with atmosphere oxygen for the duration of 60 minutes in a volume of 64 μl. The reaction is carried out in a 0.1 M Tris-HCl buffer, adjusted to pH 7.6, containing 1 mM DTT, 0.2 mg/mL catalase, 100 μM (±)-6-methyl-5,6,7,8-tetrahydropterine dihydrochloride, 40 μM L-tryptophan, and 40-80 nM of TPH1. The reaction is started by bringing together L-tryptophan with all the other reaction substituents and stopped by quenching with perchloric acid (HClO4). The amount of 5-hydroxy-L-tryptophan produced during the enzymatic reaction is determined by fluorescence readout. Fluorescence, as determined at 540 nm when excited at 300 nm wavelength, increases proportionally to the 5-hydroxy-L-tryptophan formed. Compounds are prepared as 10 mM stock solution in DMSO, then diluted in 384-well plates using DMSO followed by a transfer of the dilutions into the assay plate. Fluorescence is measured for each well and the fluorescence at 540 nm wavelength is compared to the fluorescence of the vehicle in place of compound. Inhibitory activities of example compounds with respect to the TPH1 protein are determined by calculating the IC50 value (the concentration of compound needed to inhibit 50% of the enzyme activity). The calculated IC50 values may fluctuate depending on the daily biochemical assay performance. Fluctuations of this kind are known to those skilled in the art.

The mark [1] stands for this setting: human TPH1, fluorescence readout.

Molecules are shown by their SMILES. Read-outs that look alike come from different tables or passages of the source.

Chain of human TPH1 (P17752 whole entry): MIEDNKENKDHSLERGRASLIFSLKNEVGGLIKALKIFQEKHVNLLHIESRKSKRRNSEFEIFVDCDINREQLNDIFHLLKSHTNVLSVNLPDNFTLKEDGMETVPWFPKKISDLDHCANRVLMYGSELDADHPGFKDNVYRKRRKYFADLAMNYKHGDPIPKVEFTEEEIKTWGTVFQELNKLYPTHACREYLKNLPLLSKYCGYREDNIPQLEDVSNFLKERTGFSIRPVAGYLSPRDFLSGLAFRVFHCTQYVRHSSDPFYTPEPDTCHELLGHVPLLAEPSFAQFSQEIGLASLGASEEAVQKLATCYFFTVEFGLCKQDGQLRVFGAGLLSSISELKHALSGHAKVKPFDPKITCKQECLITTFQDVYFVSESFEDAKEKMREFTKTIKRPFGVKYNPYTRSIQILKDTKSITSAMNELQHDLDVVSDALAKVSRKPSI

By IC50 is commonly meant the concentration at which inhibition is half-maximal. A high value points to a need for much substance. Under setting [1], `Cc1cnc([C@H]2c3c(nc4sc(C)nn34)CCN2C(=O)COc2ccc(N(C)S(C)(=O)=O)nc2Cl)c(F)c1` [Example 1.31.15, (R)-N-(6-chloro-5-(2-(5-(3-fluoro-5-methylpyridin-2-yl)-2-methyl-7,8-dihydro-[1,3,4]thiadiazolo[2′,3′:2,3]-imidazo[4,5-c]pyridin-6(5H)-yl)-2-oxoethoxy)pyridin-2-yl)-N-methylmethanesulfonamide] yielded an IC50 of 9 nM. Still for that read-out and setting: for `O=C(COc1ccc(N2CCOCC2)nc1Cl)N1CCc2nc3sccn3c2C1c1ccc(C2CC2)cc1F` (centres unmarked) [Example 6.6.1, 2-((2-chloro-6-morpholinopyridin-3-yl)oxy)-1-(5-(4-cyclopropyl-2-fluorophenyl)-7,8-dihydrothiazolo-[2′,3′:2,3]imidazo[4,5-c]pyridin-6(5H)-yl)ethanone] the value was 4 nM.

Under setting [1], `Cc1nn2c3c(nc2s1)CCN(C(=O)COc1ccc(N2CCOCC2)cc1Cl)C3c1ccc(Cl)cc1F` (centres unmarked) [Example 1.4.3, 1-(5-(4-chloro-2-fluorophenyl)-2-methyl-7,8-dihydro-[1,3,4]thiadiazolo[2′,3′:2,3]imidazo[4,5-c]pyridin-6(5H)-yl)-2-(2-chloro-4-morpholinophenoxy)ethanone] returned a half-maximal inhibitory concentration (IC50) of 4 nM.

`CC(=O)Nc1ccc(C2c3c(nc4sc(C)nn34)CCN2C(=O)COc2ccc(N3CCOCC3)nc2Cl)s1` (centres unmarked) [Example 1.13.1, N-(5-(6-(2-((2-chloro-6-morpholinopyridin-3-yl)oxy)acetyl)-2-methyl-5,6,7,8-tetrahydro-[1,3,4]thiadiazolo [2′,3′:2,3]imidazo[4,5-c]pyridin-5-yl)thiophen-2-yl)acetamide] showed an IC50 under setting [1] of 54 nM. On the same count and under the same terms, the figure for `Cc1nn2c3c(nc2s1)CCN(C(=O)COc1ccc(S(N)(=O)=O)cc1C)C3c1ccc(Cl)nc1F` (centres unmarked) [Example 1.16.2, 4-(2-(5-(6-chloro-2-fluoropyridin-3-yl)-2-methyl-7,8-dihydro-[1,3,4]thiadiazolo[2′,3′:2,3]imidazo[4,5-c]pyridin-6(5H)-yl)-2-oxoethoxy)-3-methylbenzenesulfonamide] is 74 nM. Regarding `Cc1nn2c3c(nc2s1)CCN(C(=O)COc1ccc(NS(C)(=O)=O)nc1Cl)C3c1ncccc1F` (centres unmarked) [Example 1.35.4, N-(6-chloro-5-(2-(5-(3-fluoropyridin-2-yl)-2-methyl-7,8-dihydro-[1,3,4]thiadiazolo[2′,3′:2,3]imidazo[4,5-c]pyridine-6(5H)-yl)-2-oxoethoxy)pyridin-2-l)methanesulfonamide], the IC50 was determined as 35 nM. As to `Cc1nn2c3c(nc2s1)CCN(C(=O)COc1ccc(NS(C)(=O)=O)nc1Cl)C3c1cc(F)c(C)cc1F` (centres unmarked) [Example 1.74.2, N-(6-chloro-5-(2-(5-(2,5-difluoro-4-methylphenyl)-2-methyl-7,8-dihydro-[1,3,4]thiadiazolo[2′,3′:2,3]imidazo[4,5-c]pyridin-6(5H)-yl)-2-oxoethoxy)pyridin-2-yl)methanesulfonamide], under setting [1], half-maximal inhibition (IC50) was put at 18 nM.

With `Cc1nn2c3c(nc2s1)CCN(C(=O)COc1ccc(N2CCOCC2)nc1Cl)C3c1ncc(C(=O)N(C)C)s1` (centres unmarked) [Example 1.37.5, 2-(6-(2-((2-Chloro-6-morpholinopyridin-3-yl)oxy)acetyl)-2-methyl-5,6,7,8-tetrahydro-[1,3,4]thiadiazolo[2′,3′:2,3]imidazo[4,5-c]pyridin-5-yl)-N,N-dimethylthiazole-5-carboxamide], the IC50 (full length human TPH1, 40 μM L-tryptophan, 15° C., 60 minutes, fluorescence at 540 nm, mean if determined several times) is 9 nM. `COCc1ccc(C2c3c(nc4sc(C)nn34)CCN2C(=O)COc2ccc(NS(C)(=O)=O)nc2Cl)c(F)c1` (centres unmarked) [Example 1.82.1, N-(6-chloro-5-(2-(5-(2-fluoro-4-(methoxymethyl)phenyl)-2-methyl-7,8-dihydro-[1,3,4]thiadiazolo[2′,3′:2,3]imidazo[4,5-c]pyridin-6(5H)-yl)-2-oxoethoxy)pyridin-2-yl)methanesulfonamide] gave an IC50 under setting [1] of 17 nM. `CCc1nc(C)ccc1OC1(C(=O)N2CCc3nc4sc(C)nn4c3C2c2ccc(C3CC3)cc2F)CC1` (centres unmarked) [Example 1.6.18, (5-(4-cyclopropyl-2-fluorophenyl)-2-methyl-7,8-dihydro-[1,3,4]thiadiazolo[2′,3′:2,3]imidazo[4,5-c]pyridin-6(5H)-yl)(1-((2-ethyl-6-methylpyridin-3-yl)oxy)cyclopropyl)methanone] displayed an IC50 under setting [1] of 186 nM. On to `CCc1nc(N2CCCS2(=O)=O)ccc1OCC(=O)N1CCc2nc3sc(C(F)(F)F)nn3c2C1c1ccc(Cl)cc1F` (centres unmarked) [Example 5.1.3, 1-(5-(4-chloro-2-fluorophenyl)-2-(trifluoromethyl)-7,8-dihydro-[1,3,4]thiadiazolo[2′,3′:2,3]imidazo[4,5-c]pyridin-6(5H)-yl)-2-((6-(1,1-dioxidoisothiazolidin-2-yl)-2-ethylpyridin-3-yl)oxy)ethanone], for which half-maximal inhibition (IC50) required 10 nM. Turning to `CCc1nn2c3c(nc2s1)CCN(C(=O)COc1ccc(-c2ncco2)nc1Cl)C3c1ccc(Cl)cc1F` (centres unmarked) [Example 3.1.3, 1-(5-(4-chloro-2-fluorophenyl)-2-ethyl-7,8-dihydro-[1,3,4]thiadiazolo[2′,3′:2,3]imidazo[4,5-c]pyridin-6(5H)-yl)-2-((2-chloro-6-(oxazol-2-yl)pyridin-3-yl)oxy)ethanone], under setting [1], the IC50 was 12 nM. Same read-out and setting: for `Cc1nn2c3c(nc2s1)CCN(C(=O)COc1ccc(N2CCOCC2)cc1Cl)C3c1cnc(C2CC2)nc1C` (centres unmarked) [Example 1.10.4, 2-(2-chloro-4-morpholinophenoxy)-1-(5-(2-cyclopropyl-4-methylpyrimidin-5-yl)-2-methyl-7,8-dihydro-[1,3,4]thiadiazolo [2′,3′:2,3]imidazo[4,5-c]pyridin-6(5H)-yl)ethanone] the value was 18 nM. `CCOC(=O)c1ncc(C2c3c(nc4sc(C)nn34)CCN2C(=O)COc2ccc(C(F)(F)F)cc2Cl)s1` (centres unmarked) [Example 1.30.2, Ethyl 5-(6-(2-(2-chloro-4-(trifluoromethyl)phenoxy)acetyl)-2-methyl-5,6,7,8-tetrahydro-[1,3,4]thiadiazolo [2′,3′:2,3]imidazo[4,5-c]pyridin-5-yl)thiazole-2-carboxylate] gave an IC50 under setting [1] of 442 nM. On the same count and under the same terms, for `Cc1nn2c3c(nc2s1)CCN(C(=O)COc1ccc(N2CCOCC2)cc1Cl)C3c1c(C)noc1C` (centres unmarked) [Example 1.5.1, 2-(2-chloro-4-morpholinophenoxy)-1-(5-(3,5-dimethylisoxazol-4-yl)-2-methyl-7,8-dihydro[1,3,4]thiadiazolo[2′,3′:2,3]imidazo[4,5-c]pyridin-6(5H)-yl)ethanone] the value was 22 nM; for `Cc1nn2c3c(nc2s1)CCN(C(=O)COc1ccc(NS(C)(=O)=O)nc1Cl)C3c1ncc(F)cc1C` (centres unmarked) [Example 1.75.1, N-(6-chloro-5-(2-(5-(5-fluoro-3-methylpyridin-2-yl)-2-methyl-7,8-dihydro-[1,3,4]thiadiazolo[2′,3′:2,3]imidazo[4,5-c]pyridin-6(5H)-yl)-2-oxoethoxy)pyridin-2-yl)methanesulfonamide], 9 nM; for `Cc1nn2c3c(nc2s1)CCN(C(=O)COc1ccc(NS(C)(=O)=O)nc1Cl)C3c1ccc(OC(F)(F)F)cc1F` (centres unmarked) [Example 1.77.1, N-(6-chloro-5-(2-(5-(2-fluoro-4-(trifluoromethoxy)phenyl)-2-methyl-7,8-dihydro-[1,3,4]thiadiazolo[2′,3′:2,3]imidazo[4,5-c]pyridin-6(5H)-yl)-2-oxoethoxy)pyridin-2-yl)methanesulfonamide], 13 nM.

For the origin of these results see patent US9765092B2, “Tricyclic piperidine compounds” (ACTELION PHARMACEUTICALS LTD, priority 2013, dated 2017).
